From the supplement of paper PMC10307832

How the values were obtained:
Experiment in all cases: relative viability (nuclei count vs DMSO), 5 days (fraction); higher = more cells survive
Alisertib + OSI-027 = compound: COc1cc(Nc2ncc3c(n2)-c2ccc(Cl)cc2C(c2c(F)cccc2OC)=NC3)ccc1C(=O)O [Alisertib] + COc1cccc2cc(-c3nc([C@H]4CC[C@H](C(=O)O)CC4)n4ncnc(N)c34)[nH]c12 [OSI-027] (partner 0.5 µM)
Method in brief: (§1)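 Lung cancer cell lines were seeded in 1536-well plates and dosed by pin tool the next day, with either a single drug or a fixed anchor-drug dose combined with five library-drug doses (not always all listed) spaced in √10 steps. Five days later, one step fixed the cells and stained their nuclei (final 0.05% Triton X-100, 1% formaldehyde, 1 ug/ml Hoechst), and nuclei were counted on 4× images. Relative viability is the nuclei count in treated wells divided by the count in vehicle wells, and each value is the median of duplicate plates.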

Alisertib + AZD7762 = compound: COc1cc(Nc2ncc3c(n2)-c2ccc(Cl)cc2C(c2c(F)cccc2OC)=NC3)ccc1C(=O)O [Alisertib] + NC(=O)Nc1cc(-c2cccc(F)c2)sc1C(=O)N[C@H]1CCCNC1 [AZD7762] (partner 0.2 µM)
Method in brief: as §1

Alisertib + Foretinib = compound: COc1cc(Nc2ncc3c(n2)-c2ccc(Cl)cc2C(c2c(F)cccc2OC)=NC3)ccc1C(=O)O [Alisertib] + COc1cc2c(Oc3ccc(NC(=O)C4(C(=O)Nc5ccc(F)cc5)CC4)cc3F)ccnc2cc1OCCCN1CCOCC1 [Foretinib] (partner 0.25 µM)
Method in brief: as §1

Alisertib + Pemetrexed = compound: COc1cc(Nc2ncc3c(n2)-c2ccc(Cl)cc2C(c2c(F)cccc2OC)=NC3)ccc1C(=O)O [Alisertib] + Nc1nc2[nH]cc(CCc3ccc(C(=O)N[C@@H](CCC(=O)O)C(=O)O)cc3)c2c(=O)[nH]1 [Pemetrexed] (partner 0.2 µM)
Method in brief: as §1

| Cell Line | relative viability (Alisertib + OSI-027; first compound 0.005 µM) | relative viability (Alisertib + OSI-027; first compound 0.01581 µM) | relative viability (Alisertib + OSI-027; first compound 0.05 µM) | relative viability (Alisertib + OSI-027; first compound 0.1581 µM) | relative viability (Alisertib + OSI-027; first compound 0.5 µM) | relative viability (Alisertib + AZD7762; first compound 0.005 µM) | relative viability (Alisertib + AZD7762; first compound 0.01581 µM) | relative viability (Alisertib + AZD7762; first compound 0.05 µM) | relative viability (Alisertib + AZD7762; first compound 0.1581 µM) | relative viability (Alisertib + AZD7762; first compound 0.5 µM) | relative viability (Alisertib + Foretinib; first compound 0.005 µM) | relative viability (Alisertib + Foretinib; first compound 0.01581 µM) | relative viability (Alisertib + Foretinib; first compound 0.05 µM) | relative viability (Alisertib + Foretinib; first compound 0.1581 µM) | relative viability (Alisertib + Foretinib; first compound 0.5 µM) | relative viability (Alisertib + Pemetrexed; first compound 0.005 µM) | relative viability (Alisertib + Pemetrexed; first compound 0.01581 µM) | relative viability (Alisertib + Pemetrexed; first compound 0.05 µM) | relative viability (Alisertib + Pemetrexed; first compound 0.1581 µM) | relative viability (Alisertib + Pemetrexed; first compound 0.5 µM) |
| --- | --- | --- | --- | --- | --- | --- | --- | --- | --- | --- | --- | --- | --- | --- | --- | --- | --- | --- | --- | --- |
| NCI-H647 | 0.662 | 0.487 | 0.227 | 0.116 | 0.102 | 0.314 | 0.367 | 0.103 | 0.0861 | 0.0503 | 1.08 | 1.04 | 0.691 | 0.301 | 0.131 | 0.155 | 0.178 | 0.122 | 0.0903 | 0.0745 |
| NCI-H441 | 0.532 | 0.446 | 0.222 | 0.22 | 0.215 | 0.927 | 0.977 | 0.471 | 0.243 | 0.199 | 0.845 | 0.546 | 0.308 | 0.262 | 0.232 | 0.288 | 0.279 | 0.249 | 0.145 | 0.142 |
| NCI-H1355 | 0.346 | 0.367 | 0.356 | 0.154 | 0.173 | 0.707 | 0.641 | 0.364 | 0.168 | 0.146 | 0.88 | 0.892 | 0.343 | 0.244 | 0.202 | 0.904 | 0.875 | 0.65 | 0.27 | 0.197 |
| NCI-H2347 | 0.373 | 0.346 | 0.373 | 0.377 | 0.282 | 0.741 | 0.671 | 0.585 | 0.387 | 0.37 | 0.733 | 0.84 | 0.863 | 0.454 | 0.459 | 0.424 | 0.423 | 0.416 | 0.409 | 0.349 |
| LCLC-97TM1 | 0.424 | 0.349 | 0.264 | 0.129 | 0.0853 | 0.192 | 0.307 | 0.207 | 0.103 | 0.0633 | 0.91 | 0.707 | 0.379 | 0.253 | 0.182 | 0.162 | 0.173 | 0.186 | 0.118 | 0.0781 |
| EMC-BAC-2 | 0.334 | 0.29 | 0.231 | 0.217 | 0.178 | 0.834 | 0.569 | 0.591 | 0.313 | 0.28 | 0.922 | 0.838 | 0.318 | 0.252 | 0.203 | 0.445 | 0.429 | 0.447 | 0.405 | 0.3 |
| NCI-H1975 | 0.582 | 0.715 | 0.431 | 0.192 | 0.143 | 0.658 | 0.618 | 0.521 | 0.33 | 0.192 | 0.816 | 0.989 | 0.501 | 0.204 | 0.165 | 0.289 | 0.265 | 0.235 | 0.214 | 0.185 |
| BEN | 0.296 | 0.265 | 0.24 | 0.217 | 0.158 | 0.57 | 0.592 | 0.359 | 0.335 | 0.389 | 0.486 | 0.57 | 0.277 | 0.213 | 0.21 | 0.629 | 0.784 | 0.335 | 0.358 | 0.342 |
| NCI-H23 | 0.518 | 0.377 | 0.287 | 0.17 | 0.144 | 0.194 | 0.139 | 0.127 | 0.135 | 0.0999 | 0.759 | 0.452 | 0.269 | 0.235 | 0.211 | 0.489 | 0.346 | 0.271 | 0.213 | 0.212 |
| CAL-12T | 0.488 | 0.277 | 0.137 | 0.165 | 0.118 | 0.528 | 0.314 | 0.183 | 0.224 | 0.201 | 0.995 | 0.821 | 0.231 | 0.231 | 0.212 | 1.14 | 1.15 | 0.242 | 0.235 | 0.176 |
| EPLC-272H | 0.275 | 0.282 | 0.256 | 0.131 | 0.124 | 0.286 | 0.308 | 0.196 | 0.12 | 0.106 | 0.733 | 0.554 | 0.152 | 0.0794 | 0.133 | 0.284 | 0.245 | 0.172 | 0.138 | 0.118 |
| LCLC-103H | 0.427 | 0.438 | 0.473 | 0.201 | 0.204 | 0.711 | 0.767 | 0.764 | 0.41 | 0.322 | 0.759 | 0.544 | 0.283 | 0.272 | 0.236 | 0.497 | 0.511 | 0.417 | 0.399 | 0.347 |
| NCI-H2405 | 0.63 | 0.666 | 0.592 | 0.321 | 0.231 | 0.589 | 0.684 | 0.66 | 0.24 | 0.251 | 1.02 | 0.992 | 0.838 | 0.371 | 0.286 | 1.01 | 1.03 | 0.871 | 0.308 | 0.295 |
| HCC-15 | 0.578 | 0.504 | 0.227 | 0.118 | 0.12 | 0.994 | 1.16 | 1.12 | 0.355 | 0.133 | 0.999 | 0.627 | 0.184 | 0.139 | 0.129 | 0.234 | 0.212 | 0.187 | 0.143 | 0.135 |
| RERF-LC-KJ | 0.539 | 0.468 | 0.354 | 0.181 | 0.191 | 0.798 | 0.799 | 0.801 | 0.236 | 0.214 | 0.861 | 0.772 | 0.484 | 0.356 | 0.21 | 0.441 | 0.466 | 0.415 | 0.273 | 0.216 |
| NCI-H1944 | 0.375 | 0.454 | 0.393 | 0.196 | 0.175 | 0.531 | 0.54 | 0.421 | 0.147 | 0.147 | 0.845 | 0.818 | 0.633 | 0.386 | 0.227 | 0.579 | 0.662 | 0.564 | 0.246 | 0.18 |
